This note sets out measurements from patent publication US20060154346A1, “Microorganism producing 5'xanthylic acid” (priority 2002, published 2006).

Experiment [1] deals with Corynebacterium ammoniagenes KCCM 10340. As to the kind of experiment: Growth of the strain in medium with added oligomycin (resistance test). Type of experiment: cell-based. The arrangement: key: +: growth; −: no growth. As to conditions: 30° C. for 5 days. An excerpt:
(§1) The invention relates to Corynebacterium ammoniagenes CJXOL 0201 (KCCM-10447) which is a mutant strain of Corynebacterium ammoniagenes KCCM 10340, producing 5′-xanthylic acid. The CJXOL 0201 is obtained by treating Corynebacterium ammoniagenes KCCM 10340 with UV radiation and mutation derivatives such as N-methy-N′-nitro-n-nitrosoguanidine(NTG) according to ordinary procedure, and selecting a mutant strain among these which can grow in the culture medium (glucose 20 g/L, potassium phosphate monobasic 1 g/L, potassium phosphate dibasic 1 g/L, urea 2 g/L, ammonium sulfate 3 g/L, magnesium sulfate 1 g/L, calcium chloride 100 mg/L, ferrous sulfate 20 mg/L, manganese sulfate 10 mg/L, zinc sulfate 10 mg/L, biotin 30 μg/L, thiamine hydrochloride 0.1 mg/L, copper sulfate 0.8 mg/L, adenine 20 mg/L, guanine 20 mg/L, pH 7.2) which different concentration levels of oligomycin (1,2,5,10,20,50 mg/L) is added into. […] 21, 2002 with accession Number KCCM 10447.
(§2) According to the Table 1, the microorganism of the invention can grow in the medium which 10 mg/L oligomycin was added into. The medium was: fermented at 30° C. for 5 days.

The test system of experiment [2] is Corynebacterium ammoniagenes CJXOL 0201. Described as above. Type of experiment: cell-based. The arrangement: key to growth of strain: +: growth; −: no growth.
From the text: as §1, §2

Regarding `CC[C@H]1/C=C/C=C/C[C@@H](C)[C@H](O)[C@@](C)(O)C(=O)[C@@H](C)[C@H](O)[C@@H](C)C(=O)[C@@H](C)[C@H](O)[C@@H](C)/C=C/C(=O)O[C@@H]2[C@H](C)[C@H](CC1)O[C@]1(CC[C@H](C)[C@H](C[C@@H](C)O)O1)[C@H]2C` [Oligomycin, oligomycin], the growth of strain result in experiment [1] (oligomycin 10 mg/L) is listed as “+”; in experiment [1] (oligomycin 20 mg/L), “−”; in experiment [1] (oligomycin 30 mg/L), “−”; in experiment [1] (oligomycin 40 mg/L) it was “−”; in experiment [1] (oligomycin 50 mg/L), “−”; in experiment [2] (oligomycin 30 mg/L, 30° C. for 5 days) it was “+”. For the same compound, the growth of strain result in experiment [2] (oligomycin 40 mg/L, 30° C. for 5 days) is “−”; in experiment [2] (oligomycin 50 mg/L, 30° C. for 5 days) it was “−”. Also, in experiment [2] (0˜50 mg/L oligomycin added into selection medium), the “oligomycin concentration up to which resistance (growth) was shown; no growth above” value is recorded as “up to 20 mg/L”. Besides, the “growth in medium with oligomycin” value in experiment [2] (oligomycin 10 mg/L, 30° C. for 5 days) is on record as “can grow”.
